This is an account of results in patent US6913877B1 (priority 2000, dated 2005).

Entries after “also recorded” stand apart in the source; their conditions may differ. Where a name gives a salt, the structure may show the parent alone. No end group written: not given here.

For data set [1], the system named is chromatophores.
For data set [2], the system named is chromatophore/neuronal cell. It is filed as cell-based.
Data set [3] deals with chromatophore/fungal cell. It is filed as cell-based.
Data set [4] deals with Betta splendens erythrophores. The class given is cell-based.
The subject of data set [5] is chromatophores. It is filed as cell-based.
For data set [6], the system named is chromatophores. Description: cells. The settings on record: read-out: Threshold concentration PPM.
Data set [7] relates to chromatophore/protozoal cell. The class given is cell-based.
Data set [8] concerns erythrophores. It is filed as cell-based.
Data set [9] has as its system melanophores. It is filed as cell-based.
The subject of data set [10] is chromatophore/bacterial cell. The class given is cell-based.
Data set [11] concerns Betta chromatophores. The class given is cell-based.
The test system of data set [12] is Hemichromis bimaculatus chromatophores. It is filed as cell-based.
Data set [13] deals with Betta splendens chromatophores. The class given is cell-based.
In data set [14] the test system is iridophores. The class given is cell-based.

Regarding `c1ccc2cc3c(ccc4ccccc43)cc2c1` [1,2-Benzanthracene], the “Chromatophore response (cell spans the chromatophore columns, cell type not assigned)” value in data set [1] was “Imp”.
On to `Nc1ncnc2c1ncn2[C@@H]1O[C@H](COP(=O)(O)OP(=O)(O)OP(=O)(O)O)[C@@H](O)[C@H]1O` [ATP], for which, in data set [2], the “Chromatophore response 2-Cell Cytosensor (second cell type included)” value (“Chromatophore response 2-Cell Cytosensor” below) is reported as “Erythr. Aggr”.
`c1cc2c3c(cccc3c1)CC2` [Acenapthene]: the “Chromatophore response (cell spans the chromatophore columns, cell type not assigned)” value in data set [1] is given as “Imp”.
On the same count and under the same terms, as for `[Ag]` [Ag], the entry is “Imp. (FS)”.
Regarding `N` [Ammonium], in [1], the “Chromatophore response (cell spans the chromatophore columns, cell type not assigned)” value is given as “Imp. (FS)”.
Regarding `C[C@@H]1[C@H](O)[C@@H](C)/C=C/C=C/C=C/C=C/C=C/C=C/C=C/[C@H](O[C@@H]2O[C@H](C)[C@@H](O)[C@H](N)[C@@H]2O)C[C@@H]2O[C@](O)(C[C@@H](O)C[C@@H](O)[C@H](O)CC[C@@H](O)C[C@@H](O)CC(=O)O[C@H]1C)C[C@H](O)[C@H]2C(=O)O` [Amphotericin B], the “Chromatophore response 2-Cell Cytosensor” value in data set [3] is recorded as “Normal”.
On to `CC(=O)OCOC(=O)CN(CC(=O)OCOC(C)=O)c1ccccc1OCCOc1ccccc1N(CC(=O)OCOC(C)=O)CC(=O)OCOC(C)=O` [BAPTA/AM], for which the erythrophore pigment response result in data set [4] is reported as “pigment dispersion”.
Take `COC(=O)C1=C(C)NC(C)=C([N+](=O)[O-])C1c1ccccc1C(F)(F)F` (stereo not drawn) [Bay K8644]: in data set [4], the “erythrophore pigment response to direct application” value is “neither the aggregation nor dispersion of erythrophore pigment”.
Consider `C=C(C=O)C[C@@H]1C[C@H](O)[C@]2(C)O[C@@H]3C[C@@H]4O[C@@H]5C[C@]6(C)O[C@]7(C)CC[C@@H]8O[C@@H]9C[C@]%10(C)O[C@@H]%11C(C)=CC(=O)O[C@H]%11C[C@H]%10O[C@H]9C[C@@H](C)[C@H]8O[C@H]7C[C@H]6O[C@H]5C/C=C\[C@H]4O[C@H]3C[C@H]2O1` [Brevetoxin], for which the “Chromatophore response (cell spans the chromatophore columns, cell type not assigned)” value in data set [1] is “Aggr”.
On to `Cn1c(=O)c2c(ncn2C)n(C)c1=O` [Caffeine], for which the “concentration at which chromatophores respond” value in [5] came out at 100 µM.
On to `CCCCCCC(C)(C)c1ccc([C@@H]2C[C@H](O)CC[C@H]2CCCO)c(O)c1` [Cannabinoid CP-55940, CP-55940], for which the minimal effective concentration in [6] lay in the range of 100 to 1000 µg/mL. The “Response time Hr.” value in data set [1] is reported as “X (key: X=1-6 hr; XX=6-24 hr)”.
For `C[N+](C)(C)CCOC(N)=O` [Carbachol], the “Chromatophore response 2-Cell Cytosensor” value in [2] is listed as “Erythr. Aggr”.
As for `CCN(CC)CCCC(C)Nc1ccnc2cc(Cl)ccc12` (stereo not drawn) [Chloroquine], the “Chromatophore response 2-Cell Cytosensor” value in data set [7] is reported as “Normal”.
On to `Clc1cccc(Cl)c1N=C1NCCN1` [Clonidine], for which the “Chromatophore response Erythrophores” value in data set [8] is recorded as “Aggr”.
For the compound `[Cu]` [Cu], the “Chromatophore response (cell spans the chromatophore columns, cell type not assigned)” value in data set [1] was “Imp. (FS)”.
Still for that read-out and setting: as for `C=CC[C@@H](CC/C(C)=C/C=C/CC/C=C\[C@@H]1CSC([C@@H]2C[C@@H]2C)=N1)OC` [Curacin A], the entry is “Aggr. and Imp. (FS)”.
In the case of `COP(=O)(OC)OC=C(Cl)Cl` [Dichlorvos], in [1], the “Threshold concentration PPT” value is given as “X (key: X=1 PPT or higher)”.
Take `C=C[C@@]1(C)CC(=O)[C@]2(O)[C@@]3(C)[C@@H](O)CCC(C)(C)[C@@H]3[C@H](O)[C@H](OC(C)=O)[C@@]2(C)O1` [Forskolin]: the “concentration at which chromatophores respond” value in data set [5] turned out to be 10000 µM.
With `C[C@]12CCC(=O)C=C1CC[C@@H]1[C@@H]2[C@@H](O)C[C@@]2(C)[C@H]1CC[C@]2(O)C(=O)CO` [Hydrocortisone], the minimal effective concentration in data set [6] lay within 1 to 100 µg/mL. In [9], the “Chromatophore response Melanophores” value is listed as “Hyp.D”.
Consider `OO` [Hydrogen peroxide], for which the “Chromatophore response (cell spans the chromatophore columns, cell type not assigned)” value in data set [1] is recorded as “Imp. (FS)”.
On to `C[C@H](CCC(=O)O)C[C@H](C)C[C@H](C)C(=O)/C=C(\O)[C@H](C)C[C@H](C)C/C=C/[C@@H](C)[C@@H](O)[C@@H](C)[C@@H](O)C[C@@H]1CC[C@@](C)([C@H]2CC[C@@](C)([C@@H](C)O)O2)O1` [Ionomycin], for which the erythrophore pigment response result in [4] is “slight, but sustained aggregation”.
As to `Cc1ncc([N+](=O)[O-])n1CCO` [Metronidazole], the “Chromatophore response 2-Cell Cytosensor” value in data set [7] is listed as “Normal”.
With `CCn1cc(C(=O)O)c(=O)c2ccc(C)nc21` [Nalidixic acid], the “Chromatophore response 2-Cell Cytosensor” value in [10] is recorded as “Normal”.
Regarding `c1ccc2c(CC3=NCCN3)cccc2c1` [Naphazoline], the “Chromatophore response Erythrophores” value in [8] is “Aggr”.
Take `[Ni]` [Ni]: the “Chromatophore response (cell spans the chromatophore columns, cell type not assigned)” value in data set [1] is “Imp. (FS)”.
On to `NC[C@H](O)c1ccc(O)c(O)c1` [Norepinephrine], for which, in [1], the “Threshold concentration PPB” value was “X (key: X=1 to 100 PPB; XX=100 to 1000 PPB)”. The chromatophore pigment response entry in [11] is given as “aggregation of chromatophore pigment is apparent”. Also, the “change of appearance / color of chromatophores” value in [12] was “change the appearance”. Moreover, in data set [8], the “Chromatophore response Erythrophores” value is reported as “Aggr”.
For `Cc1cc(C(C)(C)C)c(O)c(C)c1CC1=NCCN1` [Oxymetazoline], the “Chromatophore response Erythrophores” value in data set [8] is “Aggr”.
On to `O=S(=O)(F)Cc1ccccc1` [PMSF], for which the “Chromatophore response Melanophores” value in data set [9] is listed as “Imp”.
In the case of `CCOP(=O)(OCC)Oc1ccc([N+](=O)[O-])cc1` [Paraoxon], in data set [1], the “Threshold concentration PPM” value is on record as “XX (key: X=1 to 100 PPM; XX=100 to 1000 PPM)”.
`[Pb]` [Pb]: the “Chromatophore response (cell spans the chromatophore columns, cell type not assigned)” value in [1] is “Imp. (FS)”.
`CC(COc1ccccc1)N(CCCl)Cc1ccccc1` (stereo not drawn) [Phenoxybenzamine, Phenoxy-benzamine]: in [1], the “Chromatophore response (cell spans the chromatophore columns, cell type not assigned)” value is listed as “Blocks norepinephrine” and the “Threshold concentration PPB” value is reported as “X (key: X=1 to 100 PPB; XX=100 to 1000 PPB)”.
The like results for `Cc1ccc(N(CC2=NCCN2)c2cccc(O)c2)cc1` [Phentolamine] were, in that order, “Blocks norepinephrine” and “XX (key: X=1 to 100 PPB; XX=100 to 1000 PPB)”.
For `C=C[C@H]1C[N@@]2CC[C@H]1C[C@H]2[C@H](O)c1ccnc2ccc(OC)cc12` [Quinine sulfate], the “Chromatophore response 2-Cell Cytosensor” value in [7] is on record as “Normal”.
For the compound `O=C(O)c1ccccc1O` [Salicylate], in [1], the “Chromatophore response (cell spans the chromatophore columns, cell type not assigned)” value is listed as “Imp. (FS)”.
For `NCCc1c[nH]c2ccc(O)cc12` [Serotonin], the “Chromatophore response Melanophores” value in [9] is “Partial”.
Consider `[H]/N=C(/N)N[C@H]1[C@H](O)[C@@H](O)[C@H](O[C@@H]2O[C@@H](C)[C@](O)(C=O)[C@H]2O[C@@H]2O[C@@H](CO)[C@H](O)[C@@H](O)[C@@H]2NC)[C@@H](N/C(N)=N\[H])[C@@H]1O` [Streptomycin], for which the “Chromatophore response 2-Cell Cytosensor” value in [10] is “Normal”.
As for `c1ccc2c(c1)CCCC2C1=NCCN1` (stereo not drawn) [Tetrahydrozoline], in [8], the “Chromatophore response Erythrophores” value is reported as “Aggr”.
Regarding `CN(C)[C@@H]1C(O)=C(C(N)=O)C(=O)[C@@]2(O)C(O)=C3C(=O)c4c(O)cccc4[C@@](C)(O)[C@H]3C[C@@H]12` [Tetrasycline], in data set [1], the “Response time Hr.” value is reported as “XX (key: X=1-6 hr; XX=6-24 hr)” and the “Threshold concentration PPM” value is “X (key: X=1 to 100 PPM; XX=100 to 1000 PPM)”. Further, the “Chromatophore response 2-Cell Cytosensor” value in data set [10] is “Normal”.
Regarding `COP(=O)(OC)C(O)C(Cl)(Cl)Cl` (stereo not drawn) [Trichlorfon], in [1], the “Threshold concentration PPT” value is reported as “X (key: X=1 PPT or higher)”.
For `COc1ccc(CCN(C)CCCC(C#N)(c2ccc(OC)c(OC)c2)C(C)C)cc1OC` (stereo not drawn) [Verapamil], the erythrophore pigment response result in data set [4] is “rapid dispersion; also recorded: disperse almost as completely as possible; also recorded: pigment dispersion; also recorded: larger dispersion”.
In the case of `COC(=O)[C@@H]1[C@H]2C[C@H]3c4[nH]c5ccccc5c4CCN3C[C@@H]2CC[C@@H]1O` [Yohimbine], in data set [1], the “Chromatophore response (cell spans the chromatophore columns, cell type not assigned)” value is on record as “Blocks norepinephrine” and the “Threshold concentration PPB” value is listed as “X (key: X=1 to 100 PPB; XX=100 to 1000 PPB)”.
In the case of Cholera toxin, in [1], the “Threshold concentration PPB” value is recorded as “X (key: X=1 to 100 PPB; XX=100 to 1000 PPB)”. In data set [13], the “lowest concentration at which inhibition of norepinephrine induced pigment aggregation is detected” value is given as 1 ng/m. Further, in data set [11], the chromatophore pigment response result is “Pigment aggregation is evident” and the “effect of pre-incubation on norepinephrine-induced pigment aggregation” value is “impaired pigment aggregation in response to NE”. In addition, in data set [12], the “change of appearance / color of chromatophores” value is “change the appearance” and the “erythrophore response upon challenge by norepinephrine” value is reported as “impaired”. Further, in data set [5], the “color class of chromatophores with selective sensitivity” value is on record as “erythrophores”.
With Latrotoxin, in data set [2], the “Chromatophore response 2-Cell Cytosensor” value is “Aggr”. The “Chromatophore response Erythrophores” value in [8] is reported as “Aggr”.
In the case of MSH, in data set [1], the “Threshold concentration PPB” value is reported as “X (key: X=1 to 100 PPB; XX=100 to 1000 PPB)”. In addition, the “concentration at which chromatophores respond” value in data set [5] was 0.001 µM. The “Chromatophore response Melanophores” value in data set [9] is given as “Disp”. The “Chromatophore response Iridophores” value in data set [14] is “Hue changes (isolated”.
Consider Mevinphos, for which the “Threshold concentration PPT” value in data set [1] is recorded as “X (key: X=1 PPT or higher)”. Moreover, in data set [9], the “Chromatophore response Melanophores” value is “Imp”. For the same compound, in data set [8], the “Chromatophore response Erythrophores” value is listed as “Imp. (FS)”. In data set [14], the “Chromatophore response Iridophores” value is “Hue change, then Imp”.
In the case of Penicillin, in data set [10], the “Chromatophore response 2-Cell Cytosensor” value was “Normal”.
Take “Substance P (RPKPQQFFGLM; ends and bridges not checked; UniProt P20366 58-68, looked up)”: the “Chromatophore response Iridophores” value in data set [14] is “Hue changes (FS)”.
In the case of melanophore concentrating hormone [MCH], in data set [1], the “Chromatophore response (cell spans the chromatophore columns, cell type not assigned)” value is recorded as “Aggr” and the “Threshold concentration PPB” value is recorded as “X (key: X=1 to 100 PPB; XX=100 to 1000 PPB)”.
